The values below come from patent US5128362A, “1-aminomethyl-1,2,3,4-tetrahydronaphthalenes” (Abbott Laboratories, priority 1990, dated 1992).

Experiment [1] has as its target T1, alpha 1 receptor (Rattus norvegicus, UniProt P15823).
T1 construct: rat liver homogenates; from tissue; host or cells: rat liver homogenates
T1 sequence (P15823 1-515): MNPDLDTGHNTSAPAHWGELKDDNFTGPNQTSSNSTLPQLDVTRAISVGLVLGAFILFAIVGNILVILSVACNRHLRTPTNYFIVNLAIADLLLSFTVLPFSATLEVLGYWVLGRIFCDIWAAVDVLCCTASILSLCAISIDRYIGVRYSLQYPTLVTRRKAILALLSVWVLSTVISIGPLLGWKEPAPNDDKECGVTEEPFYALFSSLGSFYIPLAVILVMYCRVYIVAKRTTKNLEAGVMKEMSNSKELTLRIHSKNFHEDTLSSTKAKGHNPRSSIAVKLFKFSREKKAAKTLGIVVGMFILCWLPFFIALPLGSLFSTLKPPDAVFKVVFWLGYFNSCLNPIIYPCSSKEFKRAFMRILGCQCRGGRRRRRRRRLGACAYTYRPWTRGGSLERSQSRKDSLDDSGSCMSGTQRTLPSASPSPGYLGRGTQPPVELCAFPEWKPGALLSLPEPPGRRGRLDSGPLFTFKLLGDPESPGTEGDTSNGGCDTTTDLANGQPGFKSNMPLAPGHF
As to the kind of experiment: Radioligand binding, [3H]-prazosin, rat liver homogenates. The method, then:
(§1) The compounds were assessed for alpha-adrenergic receptor subtype selectivity by use of radioligand binding techniques as described previously (DeBernardis et. al. J. Med. Chem. 28, 1398 (1985)).

Experiment [2] addresses T2, alpha 2 receptor (Rattus norvegicus, UniProt P22909).
T2 construct: rat cerebral cortices; from tissue; host or cells: rat cerebral cortices
T2 sequence (P22909 1-465): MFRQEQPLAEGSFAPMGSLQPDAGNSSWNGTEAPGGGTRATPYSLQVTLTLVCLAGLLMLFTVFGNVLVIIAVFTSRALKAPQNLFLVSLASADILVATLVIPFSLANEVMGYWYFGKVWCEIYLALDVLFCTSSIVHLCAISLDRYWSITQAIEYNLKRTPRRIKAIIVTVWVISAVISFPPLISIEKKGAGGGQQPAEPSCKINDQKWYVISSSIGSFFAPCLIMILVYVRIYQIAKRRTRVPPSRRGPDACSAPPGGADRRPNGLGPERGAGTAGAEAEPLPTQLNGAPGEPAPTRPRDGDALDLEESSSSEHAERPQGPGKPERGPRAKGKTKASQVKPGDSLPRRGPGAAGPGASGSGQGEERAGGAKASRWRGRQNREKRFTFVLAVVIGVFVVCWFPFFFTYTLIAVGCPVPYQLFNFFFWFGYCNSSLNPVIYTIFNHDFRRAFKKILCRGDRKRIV
As to the kind of experiment: Radioligand binding, [3H]rauwolscine, rat cerebral cortices. Conditions: read-out: Ki alpha-2. The method, then:
as §1

In experiment [3] the test system is alpha 2 receptor. Described as above. Conditions: Ki alpha 1/Ki alpha-2. The method, then: as §1
Experiment [4] has as its system norepinephrine uptake. As to the kind of experiment: Uptake inhibition, tritiated norepinephrine, rat brain synaptosomes. Type of experiment: biochemical, Sprague-Dawley derived rats. To be noted: 0.1 μM tritiated amine, 37° C., 4 minutes, read-out: Biogenic Amine Uptake Inhibition IC50 Norephinephrine. The source says: (§2) Sprague-Dawley derived rats of either sex, weighing about 180-250 g, were killed by decapitation. The brains were immediately removed, placed on a glass plate chilled over crushed ice and dissected according to a modification of the method of Glowinski and Iversen (J. Neurochem. 13, 655-669, 1966). First, the rhombencephalon was separated by transverse section and discarded. The remaining tissue was bisected by a midline sagittal cut. The hypothalamus was removed using the anterior and posterior reference points, respectively. The hippocampus was peeled away and discarded and the striata were exposed and removed. Frontal cortical tissue was dissected from remaining brain structures. […]
(§3) Uptake studies were conducted according to the method of Synder and Coyle (J. Pharmacol. Exp. Ther. 165, 78-86, 1969) with minor modifications. Usually a 0.1 ml aliquot of the synaptosomal preparation was incubated in a mixture of 0.75 ml of modified Krebs-Ringer buffer, 0.05 ml of the drug being evaluated for uptake inhibition, and 0.1 ml of a 1 μM tritiated amine (norepinephrine, serotonin or dopamine) solution (final concentration 0.1 μM) for a total volume of 1 ml. […] All samples were cold and dark adapted and counted in a Tri-Carb® (Packard) Model 460 Liquid Scintillation Spectrometer. Corrections were automatically made for quenching by the external standard method and for luminescence. […]

Experiment [5] has as its system serotonin uptake. As to the kind of experiment: Uptake inhibition, tritiated serotonin, rat brain synaptosomes. Type of experiment: biochemical, Sprague-Dawley derived rats. Conditions: 0.1 μM tritiated amine, 37° C., 4 minutes, read-out: Biogenic Amine Uptake Inhibition IC50 Serotonin.
Excerpt: as §2, §3

Experiment [6] deals with dopamine uptake. In words: Uptake inhibition, tritiated dopamine, rat brain synaptosomes. Type of experiment: biochemical, Sprague-Dawley derived rats. To be noted: 0.1 μM tritiated amine, 37° C., 4 minutes, read-out: Biogenic Amine Uptake Inhibition IC50 Dopamine.
Excerpt: as §2, §3

[7] abbreviates: rat cerebral cortices, [3H]rauwolscine.

Counter-ions that a name gives are not always drawn. Like-named read-outs stand apart in the source and are kept apart here.

One may read the Ki as a dissociation constant, usually derived from enzyme kinetics or from competition with a known ligand. `COc1ccc2c(c1)CCC2CN1CCC(c2ccccc2)C1` (stereo not drawn) [Example 152, 5-Methoxy-1-(3-phenylpyrrolidino-1-methyl) indane hydrochloride]: the Ki is 51 nM in experiment [1] and 4.8 nM in experiment [2] (setting [7]). For the same compound, the “alpha-2 - Selectivity Ki alpha 1/Ki alpha-2” value in experiment [3] amounted to 11.

What is called IC50 is the concentration that inhibits the measured activity by half. Regarding `Fc1cc2c(c3c1C(CN1CCC(c4ccccc4)C1)CCC3)OCO2` (stereo not drawn) [Example 160, 8-Fluoro-5,6-methylenedioxy-1-(3-phenylpyrrolidino-1-methyl) tetralin hydrochloride], the IC50 in experiment [4] was 991 nM; in experiment [5] it was 1840 nM; in experiment [6], 2930 nM.

On to `CCOc1ccc2c(c1)CCCC2CN(C)CCc1cccc(N)c1` (stereo not drawn) [Example 69, 1-((N-Methylamino)methyl-N-(2-(m-aminophenyl)ethyl))-6-ethoxy tetralin dihydrochloride], for which the Ki in experiment [2] is 13 nM. Besides, in experiment [3], the “alpha-2 - Selectivity Ki alpha 1/Ki alpha-2” value is 98.

Take `Nc1ccc2c(c1)CCCC2CN1CCC(c2ccccc2)C1` (stereo not drawn) [Example 156, 6-Amino-1-(3-phenylpyrrolidino-1-methyl) tetralin dihydrochloride]: the Ki in experiment [2] was 6 nM. For the same compound, the “alpha-2 - Selectivity Ki alpha 1/Ki alpha-2” value in experiment [3] came out at 21.

Consider `COc1ccc(C)c2c1CCCC2CN(C)CCc1cccs1` (stereo not drawn) [Example 36, 1-((N-Methylamino)methyl-N-(2-(2-thienyl)ethyl))-5-methoxy-8-methyl tetralin hydrochloride], for which the inhibition constant Ki in experiment [2] came out at 6.9 nM. In experiment [3], the “alpha-2 - Selectivity Ki alpha 1/Ki alpha-2” value came to 95.

Take `c1ccc(C2CCN(CC3CCCc4c3ccc3c4OCO3)C2)cc1` (stereo not drawn) [Example 143a, 5,6-Methylenedioxy-1-(3-phenylpyrrolidino-1-methyl) tetralin methanesulfonate]: in experiment [2], the Ki is 1.2 nM. The “alpha-2 - Selectivity Ki alpha 1/Ki alpha-2” value in experiment [3] amounted to 43.

As for `Fc1ccc2c(c1)CCCC2CN1CCC(c2cccs2)C1` (stereo not drawn) [Example 149, 6-Fluoro-1-(3-(2-thienyl)pyrrolidino-1-methyl) tetralin methanesulfonate], the Ki in experiment [2] (setting [7]) is 4.9 nM. For the same compound, the “alpha-2 - Selectivity Ki alpha 1/Ki alpha-2” value in experiment [3] worked out at 45.

Take `COc1cccc2c1CCCC2CN1CCC(c2cccs2)C1` (stereo not drawn) [Example 146, 5-Methoxy-1-(3-(2-thienyl)pyrrolidino-1-methyl) tetralin hydrochloride]: the Ki in experiment [2] was determined as 4.9 nM. Further, in experiment [3], the “alpha-2 - Selectivity Ki alpha 1/Ki alpha-2” value was determined as 35.
